The values below come from PMC9401600 (Chemmedchem, 2022).

Structures are written as SMILES.

Assay [1] deals with C. elegans strain CL2006. In words: Locomotion assay (motor index). In kind it is in vivo, Caenorhabditis elegans. The following applies: CL2006 worms, 0.001-1 μM, chronic treatment, compared with UNC0638. On the procedure: One of the best‐characterized transgenic AD strains in C. elegans is the CL2006 strain, which contains the Punc‐54::Aβ1–42 transgene, showing a progressive adult‐onset paralysis. Then, to establish a dose‐response profile, the pharmacological impact of G9a inhibition was evaluated in a locomotion assay with this C. elegans strain. We performed a motility assay where animals were placed in the center of a seeded plate and allowed to explore the environment freely. […] N2 (WT), and CL2006 strain were treated with dimethyl sulfoxide (DMSO) 1 %, used as a vehicle, which should not cause a relevant locomotor defective phenotype. […] The motor index for each condition was calculated using the motor performance of Bristol (N2) (WT, 100 %) and the transgenic AD strain (CL2006, 0 %) animals as reference.
Locomotion assay of G9a inhibitors was assessed to obtain dose‐response profile, evaluating the impact of the pharmacology treatment in motor dysfunction presented by the transgenic strains CL2006. Nematodes were synchronized by alkaline hypochlorite treatment, and drug assay was performed as described above, except for the OP50 bacteria OD595 adjusted to 0.9, and the duration of the treatment was 5 days. N2 (WT), and the transgenic strain CL2006 were treated in liquid media for 4 days at 20 °C and 180 rpm, starting at the L1 stage. On day 5 of age, worms were transferred from the 96‐well plates onto an unseeded NGM plate for 45 minutes before starting the trial, allowing the plates to dry and worms. Locomotion assays were performed in 30 mm NGM plates, in which the whole surface of the plate was covered by OP50. 5 to 10 adult nematodes were placed in the center of a circle (with 1 cm of diameter) in the seeded 30 mm NGM plates. After 1 min, the number of animals remaining inside the circle was scored as a locomotor defect. Motor behavior assays were run in triplicates (n=3), with a total of at least 100 animals tested per compound concentration. Motor index establishes a score where treated animals showing the same motor defect as CL2006 have an index of 0 %. […] All the results shown in the figures are calculated using the following formula: Motorindex(%)=(LDCL2006vehicle-LDCL2006drug)/(LDCL2006vehicle-LDWTvehicle)×100 LD=locomotiondefective

Assay [2] deals with T1, EHMT1 (GLP) (Homo sapiens, UniProt Q9H9B1).
T1 construct: purchased
T1 sequence (Q9H9B1 1-1298): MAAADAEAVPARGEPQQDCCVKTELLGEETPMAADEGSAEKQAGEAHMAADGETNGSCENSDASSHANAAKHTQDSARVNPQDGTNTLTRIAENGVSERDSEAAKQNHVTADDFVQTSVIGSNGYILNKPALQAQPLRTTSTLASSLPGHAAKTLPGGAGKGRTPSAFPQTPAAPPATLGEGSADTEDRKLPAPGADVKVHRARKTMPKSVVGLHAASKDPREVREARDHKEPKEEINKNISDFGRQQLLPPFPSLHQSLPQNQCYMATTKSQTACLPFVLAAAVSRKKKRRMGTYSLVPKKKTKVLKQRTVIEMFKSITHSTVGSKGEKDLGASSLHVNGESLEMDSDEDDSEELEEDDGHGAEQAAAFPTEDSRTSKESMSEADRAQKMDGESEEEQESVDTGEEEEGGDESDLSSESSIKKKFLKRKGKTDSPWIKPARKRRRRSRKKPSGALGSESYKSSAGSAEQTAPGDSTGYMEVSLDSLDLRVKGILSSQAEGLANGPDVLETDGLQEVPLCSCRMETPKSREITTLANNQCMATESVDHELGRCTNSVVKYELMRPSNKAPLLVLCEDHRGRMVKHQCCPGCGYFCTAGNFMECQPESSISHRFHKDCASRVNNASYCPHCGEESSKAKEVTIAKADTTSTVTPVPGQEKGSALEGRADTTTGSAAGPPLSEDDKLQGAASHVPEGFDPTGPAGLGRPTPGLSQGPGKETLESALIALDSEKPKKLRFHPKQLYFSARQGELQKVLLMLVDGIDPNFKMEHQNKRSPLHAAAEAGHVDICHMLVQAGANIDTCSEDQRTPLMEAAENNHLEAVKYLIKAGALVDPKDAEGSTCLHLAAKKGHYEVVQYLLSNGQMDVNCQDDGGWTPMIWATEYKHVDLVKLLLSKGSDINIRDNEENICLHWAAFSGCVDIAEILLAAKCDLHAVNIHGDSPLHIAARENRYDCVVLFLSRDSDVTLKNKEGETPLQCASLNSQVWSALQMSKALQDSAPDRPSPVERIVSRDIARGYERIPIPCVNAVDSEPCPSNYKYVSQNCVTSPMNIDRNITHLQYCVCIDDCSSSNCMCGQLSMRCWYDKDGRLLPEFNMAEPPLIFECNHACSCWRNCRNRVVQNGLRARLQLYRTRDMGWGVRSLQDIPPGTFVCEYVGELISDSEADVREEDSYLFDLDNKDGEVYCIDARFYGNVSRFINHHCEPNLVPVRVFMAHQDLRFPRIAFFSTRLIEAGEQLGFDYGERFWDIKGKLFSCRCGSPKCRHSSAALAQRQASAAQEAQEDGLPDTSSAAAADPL
As to the kind of experiment: EHMT1 (GLP) chemiluminescent assay. In kind it is biochemical. The following applies: 0.01 μM to 10 μM. As for the experimental part:
Last, but not least, further characterization of the best candidates was performed assessing their selectivity. Thus, we tested them against EHMT1 (G9a‐like protein, GLP). […] However, they presented a very low percentage, and furthermore this trend was not observed at high doses.
The assay was carried out using EHMT1 (GLP) Chemiluminescent Assay kit. Compounds were added on a 96‐well plate precoated with histone substrate supplied by kit. 30 μL of master mixture SAM were added and the reaction was initiated adding 20 μL of diluted EHMT1 (GLP) enzyme. The reaction was incubated at room temperature (RT) for 1 hour. The plate was washed three times with 200 μl TBST buffer. 100 μL of Blocking buffer were added to every well and the plate was incubated at RT for 10 minutes with shaking. Supernatant was removed and 100 μl of Primary antibody were added per well. The plate was incubated at RT for 1 hour with slow shaking. The plate was washed three times with 200 μl TBST buffer. 100 μL of Blocking buffer were added to every well and the plate was incubated at RT for 10 minutes with shaking. 100 μl of Secondary HRP‐labeled antibody were added per well and the plate was incubated at RT for 30 minutes with slow shaking. The plate was washed three times with 200 μl TBST buffer. Finally, 100 μl of substrate mix were added and the luminescence was measurement with integration time of 1 second in Perkin Elmer EnSpire Multimode plate reader.

Turning to `CCN1C[C@H](NC(=O)c2cc3cc(Cl)ccc3[nH]2)[C@@H](OC)C1` [F, 5‐chloro‐N‐((3S,4S)‐1‐ethyl‐4‐methoxypyrrolidin‐3‐yl)‐1H‐indole‐2‐carboxamide], the “motor index dose‐response profile (in words)” value in assay [1] is on record as “ameliorating the paralysis presented by CL2006”. Also, the “activity against EHMT1 (in words)” value in assay [2] is “slight activity against EHMT1 at low doses”.
Taken in the same sequence, the figures for `Cc1cc(N2CCN(Cc3cc(CN4CCCC4)cs3)CC2)nc(N)n1` [E] were “ameliorating the paralysis presented by CL2006” and “did not inhibit EHMT1”.
In the same order, the values of `Cc1cc(CNC(=O)C(c2ccc(F)cc2)N2CCCCC2)cnc1C` (stereo not drawn) [H] are “ameliorating the paralysis presented by CL2006” and “slight activity against EHMT1 at low doses”.
